Assay results: ChEMBL document CHEMBL1127296, “Interaction of calcium channel antagonists with calcium: structural studies on nicardipine and its Ca2+ complex” (J Med Chem, 1994)

Key:
[1] = Dissociation constant to estimate the calcium binding to the compound at the ratio of 2:1
[2] = Dissociation constant to estimate the calcium binding to the compound at the ratio of 1:1

## COC(=O)C1=C(C)NC(C)=C(C(=O)OCCN(C)Cc2ccccc2)C1c1cccc([N+](=O)[O-])c1 (configuration not stated)
[1]
  K2: 26 µM
[2]
  K1: 100 µM
